Values of other authors in article PMC4855509 (Photochemistry and photobiology, 2014).

## carboxy-tetramethylrhodamine [TMR]
  triplet state quantum yield: 0.001–0.003
